According to ChEMBL document CHEMBL1149619, “E,E,E-1-(4-Arylamino-4-oxo-2-butenoyl)-3,5-bis(arylidene)-4-piperidones: a topographical study of some novel potent cytotoxins” (Bioorg Med Chem, 2007):

Legend:
Aspergillus fumigatus [1] = test: Antifungal activity against Aspergillus fumigatus F69827; assay type: functional
L1210 = test: Cytotoxicity against mouse L1210 cells; assay type: functional, cell-based
CCRF-CEM = test: Cytotoxicity against human CEM cells; assay type: functional, cell-based
[2] = Cytotoxicity against human Molt 4/C8 cells; assay type: functional, cell-based; details: Molt4/C8
Mus musculus = test: Neurotoxicity in mouse assessed as mortality up to 300 mg/kg after 4 hrs; assay type: toxicity, organism-based; design: dose 300 mg/kg; details: in vivo
Aspergillus fumigatus [3] = test: Antifungal activity against Aspergillus fumigatus ATCC 280996; assay type: functional
Aspergillus fumigatus [4] = test: Antifungal activity against Aspergillus fumigatus ATCC 280995; assay type: functional
Aspergillus fumigatus [5] = test: Antifungal activity against Aspergillus fumigatus M44251; assay type: functional
Aspergillus fumigatus [6] = test: Antifungal activity against Aspergillus fumigatus ATCC 280997; assay type: functional
[7] = Cytotoxicity against human colon cancer cells; assay type: functional; details: Cancer cell lines
[8] = Cytotoxicity against human leukemia cells; assay type: functional; details: Leukemia cell
[9] = biological target: T1, Glycylpeptide N-tetradecanoyltransferase 1 (Homo sapiens) (UniProt P30419); test: Inhibition of human NMT at 50 uM
T1 sequence (whole entry): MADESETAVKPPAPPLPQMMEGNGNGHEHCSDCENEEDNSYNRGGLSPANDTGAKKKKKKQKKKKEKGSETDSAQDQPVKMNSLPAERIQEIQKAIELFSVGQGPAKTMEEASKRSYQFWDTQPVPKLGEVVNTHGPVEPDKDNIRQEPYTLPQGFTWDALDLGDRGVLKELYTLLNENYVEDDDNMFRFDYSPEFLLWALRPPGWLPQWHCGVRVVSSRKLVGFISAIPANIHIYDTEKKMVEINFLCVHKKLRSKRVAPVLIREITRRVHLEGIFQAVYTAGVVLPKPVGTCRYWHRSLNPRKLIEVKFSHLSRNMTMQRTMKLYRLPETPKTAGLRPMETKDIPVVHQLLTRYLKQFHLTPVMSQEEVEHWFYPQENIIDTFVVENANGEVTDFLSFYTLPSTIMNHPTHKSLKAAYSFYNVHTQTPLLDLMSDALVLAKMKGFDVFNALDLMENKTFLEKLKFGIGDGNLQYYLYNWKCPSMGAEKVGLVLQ

[10] = biological target: T1, Glycylpeptide N-tetradecanoyltransferase 1 (Homo sapiens); test: Inhibition of human NMT at 100 uM

| SMILES | MIC (Aspergillus fumigatus [1]) [µg/mL] | IC50 (L1210) [nM] | IC50 (CCRF-CEM) [nM] | IC50 [2] [nM] | Activity (Mus musculus) | MIC (Aspergillus fumigatus [3]) [µg/mL] | MIC (Aspergillus fumigatus [4]) [µg/mL] | MIC (Aspergillus fumigatus [5]) [µg/mL] | MIC (Aspergillus fumigatus [6]) [µg/mL] | GI50 [7] [nM] | GI50 [8] [nM] | inhibition [9] [%] | inhibition [10] [%] |
| --- | --- | --- | --- | --- | --- | --- | --- | --- | --- | --- | --- | --- | --- |
| CC(=O)c1ccc(NC(=O)/C=C/C(=O)N2C/C(=C\c3ccc([N+](=O)[O-])cc3)C(=O)/C(=C/c3ccc([N+](=O)[O-])cc3)C2)cc1 | > 50 | 1400 | 360 | 390 | Non-toxic | > 50 | > 50 | > 50 | > 50 | – | – | – | – |
| O=C(/C=C/C(=O)N1C/C(=C\c2ccc([N+](=O)[O-])cc2)C(=O)/C(=C/c2ccc([N+](=O)[O-])cc2)C1)Nc1ccc(Cl)cc1 | > 50 | 3600 | 810 | 1200 | Non-toxic | > 50 | > 50 | > 50 | > 50 | – | – | – | – |
| N[C@@H](Cc1ccc(N(CCCl)CCCl)cc1)C(=O)O [MELPHALAN] | – | – | – | – | – | – | – | – | – | 50100 | 3980 | – | – |
| Cc1ccc(NC(=O)/C=C/C(=O)N2C/C(=C\c3ccccc3)C(=O)/C(=C/c3ccccc3)C2)cc1C | > 50 | 31000 | 7100 | 7900 | Non-toxic | > 50 | > 50 | > 50 | > 50 | – | – | – | – |
| Cc1ccc(NC(=O)/C=C/C(=O)N2C/C(=C\c3ccccc3)C(=O)/C(=C/c3ccccc3)C2)cc1 | > 50 | 5800 | 1100 | 660 | Non-toxic | > 50 | > 50 | > 50 | > 50 | – | – | 50 | – |
| CC(=O)c1ccc(NC(=O)/C=C/C(=O)N2C/C(=C\c3ccccc3)C(=O)/C(=C/c3ccccc3)C2)cc1 | > 50 | 5500 | 1700 | 1400 | Non-toxic | > 50 | > 50 | > 50 | > 50 | – | – | – | – |
| Cc1cccc(C)c1NC(=O)/C=C/C(=O)N1C/C(=C\c2ccccc2)C(=O)/C(=C/c2ccccc2)C1 | > 50 | 22000 | 7400 | 6600 | Non-toxic | > 50 | > 50 | > 50 | > 50 | – | – | – | – |
| C[C@@H](c1ncncc1F)[C@](O)(Cn1cncn1)c1ccc(F)cc1F [VORICONAZOLE] | ≤ 0.25 | – | – | – | – | ≤ 0.25 | ≤ 0.25 | ≤ 0.25 | ≤ 0.25 | – | – | – | – |
| O=C(/C=C/C(=O)N1C/C(=C\c2ccc([N+](=O)[O-])cc2)C(=O)/C(=C/c2ccc([N+](=O)[O-])cc2)C1)Nc1ccc(Cl)c(Cl)c1 | > 50 | 1700 | 380 | 600 | Non-toxic | > 50 | > 50 | > 50 | > 50 | – | – | – | 50 |
| COc1ccc(NC(=O)/C=C/C(=O)N2C/C(=C\c3ccccc3)C(=O)/C(=C/c3ccccc3)C2)cc1 | > 50 | 6800 | 510 | 1100 | Non-toxic | > 50 | > 50 | > 50 | > 50 | 759 | 105 | – | – |
| O=c1[nH]cc(F)c(=O)[nH]1 [FLUOROURACIL] | – | – | – | – | – | – | – | – | – | 5750 | 52500 | – | – |
| O=C(/C=C/C(=O)N1C/C(=C\c2ccccc2)C(=O)/C(=C/c2ccccc2)C1)Nc1ccc([N+](=O)[O-])cc1 | > 50 | 40000 | 40000 | 31000 | Non-toxic | > 50 | > 50 | > 50 | > 50 | – | – | – | – |
| O=C(/C=C/C(=O)N1C/C(=C\c2ccccc2)C(=O)/C(=C/c2ccccc2)C1)Nc1ccc(Cl)c(Cl)c1 | > 50 | 7500 | 350 | 1700 | Non-toxic | > 50 | > 50 | > 50 | > 50 | 646 | 447 | – | 50 |
| COc1ccc(NC(=O)/C=C/C(=O)N2C/C(=C\c3ccc([N+](=O)[O-])cc3)C(=O)/C(=C/c3ccc([N+](=O)[O-])cc3)C2)cc1 | > 50 | 2900 | 760 | 940 | Non-toxic | > 50 | > 50 | > 50 | > 50 | – | – | – | – |
| O=C(/C=C/C(=O)N1C/C(=C\c2ccccc2)C(=O)/C(=C/c2ccccc2)C1)Nc1ccccc1 | > 50 | 3600 | 1100 | 520 | Non-toxic | > 50 | > 50 | > 50 | > 50 | – | – | – | – |
| Cc1ccc(NC(=O)/C=C/C(=O)N2C/C(=C\c3ccc([N+](=O)[O-])cc3)C(=O)/C(=C/c3ccc([N+](=O)[O-])cc3)C2)cc1 | > 50 | 4400 | 890 | 700 | Non-toxic | > 50 | > 50 | > 50 | > 50 | – | – | 50 | – |
| O=C(/C=C/C(=O)N1C/C(=C\c2ccccc2)C(=O)/C(=C/c2ccccc2)C1)Nc1ccc(Cl)cc1 | > 50 | 7800 | 840 | 1800 | Non-toxic | > 50 | > 50 | > 50 | > 50 | 1150 | 589 | – | – |
| O=C(/C=C/C(=O)N1C/C(=C\c2ccc([N+](=O)[O-])cc2)C(=O)/C(=C/c2ccc([N+](=O)[O-])cc2)C1)Nc1ccccc1 | > 50 | 1800 | 370 | 360 | Non-toxic | > 50 | > 50 | > 50 | > 50 | – | – | – | – |
| Cc1ccc(NC(=O)/C=C/C(=O)N2C/C(=C\c3ccc([N+](=O)[O-])cc3)C(=O)/C(=C/c3ccc([N+](=O)[O-])cc3)C2)cc1C | > 50 | 4900 | 700 | 660 | Non-toxic | > 50 | > 50 | > 50 | > 50 | – | – | – | – |
| O=C(/C=C/C(=O)N1C/C(=C\c2ccc([N+](=O)[O-])cc2)C(=O)/C(=C/c2ccc([N+](=O)[O-])cc2)C1)Nc1ccc([N+](=O)[O-])cc1 | > 50 | 1000 | 410 | 430 | Non-toxic | > 50 | > 50 | > 50 | > 50 | – | – | – | – |
| Cc1cccc(C)c1NC(=O)/C=C/C(=O)N1C/C(=C\c2ccc([N+](=O)[O-])cc2)C(=O)/C(=C/c2ccc([N+](=O)[O-])cc2)C1 | > 50 | 690 | 230 | 210 | Non-toxic | > 50 | > 50 | > 50 | > 50 | – | – | – | – |
